Results on 30 compounds are retold here after patent US11985994B2, “Sweetener and flavor compositions, methods of making and methods of use thereof” (EPC Natural Products Co., Ltd., priority 2018, dated 2024).

Data set [1] can be described thus: Sensory evaluation (smell, color, taste) of Maillard reaction samples, Examples 52, 55-63. On the set-up: species or system human. How it is done:
For evaluation of the taste profile, the samples were tested by a panel of four people. 1 trained taster tasted independently the samples first. The taster was asked to describe the taste profile and score 0-5 according to the increasing sugar likeness, bitterness, aftertaste and lingering taste profiles. The first taster was allowed to re-taste, and then make notes for the sensory attributes perceived. Afterwards, another 3 tasters tasted and the attributes were noted and discussed openly to find a suitable description. In case that more than 1 taster disagreed with the results, the tasting was repeated. In some sensory test results (above), the taste rating was expressed by “+”, which means the intensity of the factors is shown by three levels. “+” for slight, “++” for moderate and “+++” for very strong.
All samples were assessed at 22° C. after the Maillard reaction was stopped by placing the sealed vials in an ice bath. After 20 minutes in the ice bath the sealed vials were put in a water bath set to 22° C.
The odor/smell was assessed independently by 3 persons; the final description was agreed after discussion. […] The taste was assessed independently by 3 persons either in the original samples or after appropriate dilution to achieve relevant concentrations of sugars and steviol-glycosides (i.e. 5-9% SE); the final description was agreed after discussion.

The conditions of data set [2]: cited from earlier work.
Data set [3] can be described thus: Sensory evaluation (smell, color, taste) of Maillard reaction samples, Examples 52, 55-63. Also on record: species or system human. The following applies: before reaction, 10 ml KH2PO4 pH 7.8 (Example 57).
Data set [4] is described as follows: Sensory evaluation of GSGs and SGs, thaumatin, NHDC and combinations (Example 255). On the set-up: species or system human. How it is done: 4.5 ppm Thaumatin (equivalent to 10 ppm EPCalin) was dissolved in water. Increasing amounts of NHDC (1-5 ppm) were added to the solution and the sensory properties were evaluated.
50 ppm (GSGs and SGs) were dissolved in water. Increasing amounts of NHDC (1-5 ppm) were added to the solution and the sensory properties were evaluated.
50 ppm (GSGs and SGs) and 4.5 ppm Thaumatin (equivalent to 10 ppm EPCalin) were dissolved in water. Increasing amounts of NHDC (1-5 ppm) were added to the solution and the sensory properties were evaluated.
Sweetness intensity was rated on 5-point scale

The nature of data set [5]: HPLC/DAD/MS analysis of reaction partners and MRI (Amadori) products. The data set is classed as physicochemical. The following applies: 120 °C; for consumption in the reaction with Phe: KH2PO4 pH 7.8, 2.5 h, glucose present or not. How it is done: Quantitative evaluation was performed using external standardization.
[6] abbreviates: negative controls (no carbohydrate source), 10 ml glycerin/water, 100 °C, 40 minutes.
Setting [7] is: Table 52.2: 1 ml water + 9 ml Glycerin, 0.67 h, 100 °C.
Where [8] appears, read: 1 ml water + 9 ml Glycerin, 2.0 h, 120 °C.
Where [9] appears, read: depends on the tested concentration compared with sucrose.
[10] abbreviates: after reaction, 10 ml KH2PO4 pH 7.8, 2.5 h, 120 °C (Example 58).
The mark [11] stands for this setting: before reaction, 10 ml KH2PO4 pH 7.8 (Example 58).
Where [12] appears, read: 1 ml water + 9 ml Glycerin, 1 h, 100 °C.
[13] abbreviates: after reaction, 10 ml KH2PO4 pH 7.8, 2.5 h, 120 °C (Example 57).
Where [14] appears, read: Table 52.3: 1 ml water + 9 ml Glycerin, 0.67 h, 100 °C.

Read-outs that look alike come from different tables or passages of the source. Residues, ends and D or L forms follow the SMILES beside them.

On to `C[C@H](N)C(=O)O` [8.91 mg Ala, Alanine], for which, in data set [1] (setting [6]), the Color entry is “No color”; the Smell entry was “Neutral, slightly Agar”; the Taste result was “Slightly sweet”.

With `CC[C@H](C)[C@H](N)C(=O)O` [13.11 mg Ile, Isoleucine], in data set [1] (setting [6]), the Color entry was “No color”, the Smell entry is recorded as “Coffee” and the Taste result is “Slightly sweet”.

For `C[C@H](N)C(=O)O` [0.1 mMol Ala, Alanine], the Color entry in data set [1] (setting [7]) was “No Color”.

Consider `O=C[C@H](O)[C@H]1OC(=O)[C@@H](O)[C@H]1O` [0.1 mMol GlucLac, Glucuronolactone], for which, in data set [1] (setting [8]), the Color result is given as “Almost black”, the “Intensity of Smell” value is recorded as “+++”, the Smell entry is reported as “Burnt sugar” and the Taste entry was “Bitter”.

For `COC(=O)[C@H](Cc1ccccc1)NC(=O)[C@@H](N)CC(=O)O` [Aspartame] (H-Asp-Phe-OMe), the sweetness in data set [2] (setting [9]) is on record as 160-200 times sweeter than sucrose.

For the compound `O=C(O)[C@@H]1CCCN1` [11.5 mg Pro, Proline], in data set [1] (setting [6]), the Color entry was “Slightly Yellow”; the Smell entry is “Neutral, slightly”; the Taste result is “Slightly sweet”.

In the case of `OC[C@H]1O[C@H](O[C@]2(CCl)O[C@H](CCl)[C@@H](O)[C@@H]2O)[C@H](O)[C@@H](O)[C@H]1Cl` [sucralose], in data set [2] (setting [9]), the sweetness entry is given as “about 600 times sweeter than sucrose”.

Take `N[C@@H](CO)C(=O)O` [10.5 mg Ser, Serine]: in data set [1] (setting [6]), the Color result is on record as “Slightly Yellow”, the Smell result was “Lotus flower” and the Taste result is “Slightly sweet”.

On to MoneIlin, for which the Sweetness by weight in data set [2] (compared to sucrose) was 800-2,000.

On to `N[C@@H](Cc1ccccc1)C(=O)O` [16.5 mg Phe, Phenylalanine], for which the Color result is listed as “No color” in data set [3], “Slightly Yellow” in data set [1] (setting [10]), “No color” in data set [1] (setting [11]) and “Very Slightly” in data set [1] (setting [6]). The Smell result was “neutral” in data set [3]; “Caramel, burnt” in data set [1] (setting [10]); “Neutral” in data set [1] (setting [11]); “Bloomy, caramel” in data set [1] (setting [6]). Further, the Taste result in data set [3] is reported as “No taste”; in data set [1] (after reaction, after dilution 1:20 (Example 58)) it was “Sweet”; in data set [1] (before reaction, after dilution 1:20 (Example 58)), “No taste”; in data set [1] (setting [6]) it was “Slightly sweet”.

Consider `O=C[C@H](O)[C@@H](O)[C@H](O)[C@H](O)C(=O)O` [0.1 mMol Gluc Acid, Glucuronic Acid], for which, in data set [1] (setting [8]), the Color entry is recorded as “Almost black”, the “Intensity of Smell” value is on record as “+++”, the Smell result is given as “burnt bread” and the Taste result is given as “Bitter”.

As to `O=C[C@H](O)[C@@H](O)[C@H](O)CO` [167 mMol Xyl, Xylose], in data set [1] (setting [12]), the Color result is reported as “No color”, the Smell entry is listed as “neutral/meat” and the Taste entry is “Sweet”.

In the case of `O=C[C@H](O)[C@@H](O)[C@H](O)CO` [10 mmol Xyl, Xylose], in data set [1] (Glycerin 10 ml, 100 °C, 40 min), the Color result is on record as “Slightly Yellow” and the Smell entry is “Slightly Popcorn”. Further, in data set [1] (Glycerin 10 ml, 1 h, 120 °C), the Color entry is given as “No color” and the Smell entry is reported as “neutral”.

Turning to `N[C@@H](Cc1ccccc1)C(=O)O` [Phe 60 mMol, Phenylalanine], in data set [1] (setting [12]), the Color result is listed as “Slightly Yellow”, the Smell entry is given as “flowery/bloomy-caramel” and the Taste entry is listed as “Sweet”.

For `N[C@@H](CS)C(=O)O` [12.1 mg Cys, Cysteine], in data set [1] (setting [6]), the Color result is listed as “Slightly Yellow”, the Smell result is given as “Unpleasant (sulfur)” and the Taste result is “Slightly sweet”.

As to `COc1ccc(CCC(=O)c2c(O)cc(O[C@@H]3O[C@H](CO)[C@@H](O)[C@H](O)[C@H]3O[C@@H]3O[C@@H](C)[C@H](O)[C@@H](O)[C@H]3O)cc2O)cc1O` [NHDC, Neohesperidin dihydrochalcone], the sweetness in data set [2] (at threshold concentrations) is listed as 1500-1800 times sweeter than sugar; in data set [2] (weight-for-weight) it was “about 340 times sweeter than sugar”. The lingering result in data set [4] (4, 5 ppm added to 50 ppm GSGs and SGs and 4.5 ppm Thaumatin) is on record as “boosts the lingering”; in data set [4] (4 and 5 ppm added to 4.5 ppm Thaumatin in water), “long lasting lingering”.

Consider `N[C@@H](Cc1c[nH]c2ccccc12)C(=O)O` [20.42 mg Try, Tryptophan], for which, in data set [1] (setting [6]), the Color entry is reported as “Slightly Yellow”, the Smell result is listed as “Unpleasant (fecal)” and the Taste result is recorded as “Slightly sweet”.

In the case of `O=C[C@H](O)[C@@H](O)[C@H](O)[C@H](O)C(=O)O` [18 mg Glucuronic Acid, Glucuronic Acid], in data set [3], the Color result is on record as “No color”, the Smell entry is on record as “neutral” and the Taste result is given as “No taste”.

With `N[C@@H](Cc1ccccc1)C(=O)O` [3.3 mMol Phe, Phenylalanine], the Color result in data set [1] (Glycerin 10 ml, 100 °C, 5 min) is “No color”; in data set [1] (Glycerin 10 ml, 100 °C, 10 min), “No color”; in data set [1] (Glycerin 10 ml, 100 °C, 20 min) it was “Slightly Yellow”; in data set [1] (Glycerin 10 ml, 100 °C, 40 min) it was “Yellow-slightly”; in data set [1] (Glycerin 10 ml, 1 h, 120 °C) it was “Brown”. The Smell result in data set [1] (Glycerin 10 ml, 100 °C, 5 min) is “Slightly bloomy”; in data set [1] (Glycerin 10 ml, 100 °C, 10 min), “flowery/bloomy”; in data set [1] (Glycerin 10 ml, 100 °C, 20 min), “flowery/bloomy”; in data set [1] (Glycerin 10 ml, 100 °C, 40 min), “flowery/bloomy”; in data set [1] (Glycerin 10 ml, 1 h, 120 °C), “flowery/bloomy”.

In the case of `NCCCC[C@H](N)C(=O)O` [14.7 mg Lys, Lysine], in data set [1] (setting [6]), the Color entry is reported as “brown”, the Smell entry was “Popcorn” and the Taste result is given as “Slightly sweet”.

For the compound `C[C@@H](O)[C@H](N)C(=O)O` [11.91 mg Thr, Threonine], in data set [1] (setting [6]), the Color entry is on record as “Very Slightly”; the Smell result is on record as “Vanilla, butter”; the Taste result is reported as “Slightly sweet”.

As for `O=C[C@H](O)[C@H]1OC(=O)[C@@H](O)[C@H]1O` [Glucuronolactone], the “consumption in the reaction with Phe” value in data set [5] was “completely consumed”. Further, in data set [1] (setting [13]), the Color result is given as “Deep Yellow”, the Smell result was “Burnt sugar” and the Taste result was “Bitter”.

In the case of `O=C[C@H](O)[C@@H](O)[C@H](O)CO` [Xyl, Xylose], the “% degradation” value in data set [5] (Phe + Xyl, pH = 7.0, 1.0 h) is on record as 6.3%.

With `O=C[C@H](O)[C@@H](O)[C@H](O)[C@H](O)C(=O)O` [Glucuronic Acid], the “consumption in the reaction with Phe” value in data set [5] is listed as “completely consumed”. For the same compound, in data set [1] (setting [13]), the Color entry is reported as “Deep Yellow”, the Smell result is listed as “burnt bread” and the Taste result is recorded as “Bitter”.

Turning to `N[C@@H](Cc1ccc(O)cc1)C(=O)O` [18.1 mg Tyr, Tyrosine], in data set [1] (setting [6]), the Color entry is “No color”, the Smell entry is reported as “neutral” and the Taste result is “Slightly sweet”.

Regarding `O=S(=O)([O-])NC1CCCCC1.[Na+]` [sodium cyclamate], the sweetness entry in data set [2] (setting [9]) was “about 30 times sweeter than sucrose”.

In the case of `C=C1C[C@@]23CC[C@H]4[C@@](C)(CCC[C@@]4(C)C(=O)O[C@@H]4O[C@H](CO)[C@@H](O)[C@H](O)[C@H]4O)[C@@H]2CC[C@]1(O[C@@H]1O[C@H](CO)[C@@H](O)[C@H](O[C@@H]2O[C@H](CO)[C@@H](O)[C@H](O)[C@H]2O)[C@H]1O[C@@H]1O[C@H](CO)[C@@H](O)[C@H](O)[C@H]1O)C3` [0.05 mMol Reb-A, Rebaudioside A], the Color entry in data set [1] (setting [7]) is reported as “Slightly Yellow”.

As to `CSCC[C@H](N)C(=O)O` [14.9 mg Met, Methionine], in data set [1] (setting [6]), the Color result is on record as “Very Slightly”, the Smell result was “Sulfuric” and the Taste result is on record as “Slightly sweet”.

Regarding `N[C@@H](Cc1ccccc1)C(=O)O` [0.1 mMol Phe, Phenylalanine], in data set [1] (setting [8]), the Color entry is recorded as “Slightly Yellow”; the “Intensity of Smell” value was “+”; the Smell entry is recorded as “Caramel, burnt”; the Taste entry is recorded as “sweet”. Moreover, in data set [1] (setting [7]), the Color result is listed as “Slightly Yellow”, the Smell result is “flowery/bloomy,” and the Taste entry is reported as “sweet”.

Take `NCCCC[C@H](N)C(=O)O` [0.1 mMol Lys, Lysine]: in data set [1] (setting [14]), the Color result is “Brown”, the Smell result is given as “Popcorn” and the Taste entry is “Sweet”.
